In PubChem BioAssay (NCI):
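Dose response: 5 concentrations. Exposure: 48 h. Format: 96-well plates. Endpoint: linear interpolation; highest concentration if not reached. At the GI50, growth is halved. TGI marks complete inhibition of growth.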

Legend:
Test in all cases: growth of human tumour cells (NCI), 48 h
NCI-H226 lung = tested on: NCI-H226 lung
NCI-H460 lung = tested on: NCI-H460 lung
NCI-H522 lung = tested on: NCI-H522 lung
OVCAR-3 ovarian = tested on: OVCAR-3 ovarian
OVCAR-4 ovarian = tested on: OVCAR-4 ovarian
OVCAR-5 ovarian = tested on: OVCAR-5 ovarian
OVCAR-8 ovarian = tested on: OVCAR-8 ovarian
RPMI-8226 leukemia = tested on: RPMI-8226 leukemia
SF-268 CNS = tested on: SF-268 CNS
SF-295 CNS = tested on: SF-295 CNS
SF-539 CNS = tested on: SF-539 CNS
SK-MEL-2 melanoma = tested on: SK-MEL-2 melanoma
SK-MEL-28 melanoma = tested on: SK-MEL-28 melanoma
SK-MEL-5 melanoma = tested on: SK-MEL-5 melanoma
SK-OV-3 ovarian = tested on: SK-OV-3 ovarian
SN12C renal = tested on: SN12C renal
SNB-19 CNS = tested on: SNB-19 CNS
SNB-75 CNS = tested on: SNB-75 CNS
SW-620 colon = tested on: SW-620 colon
U251 CNS = tested on: U251 CNS
UACC-257 melanoma = tested on: UACC-257 melanoma
UACC-62 melanoma = tested on: UACC-62 melanoma
UO-31 renal = tested on: UO-31 renal

With `CC(=O)[CH-]C(=O)c1ccccc1.CC(=O)[CH-]C(=O)c1ccccc1.[O-]Cc1cccs1.[O-]Cc1cccs1.[Ti+4]` the TGI (NCI-H226 lung) was greater than 100 µM, the GI50 (NCI-H460 lung) was 29.4 µM and the TGI (NCI-H460 lung) was greater than 100 µM. It also gave a GI50 (NCI-H522 lung) of 54.2 µM, a TGI (NCI-H522 lung) greater than 100 µM and a GI50 (OVCAR-3 ovarian) greater than 100 µM. For the same compound, the TGI (OVCAR-3 ovarian) was greater than 100 µM, the GI50 (OVCAR-4 ovarian) was greater than 100 µM and the TGI (OVCAR-4 ovarian) was greater than 100 µM. The GI50 (OVCAR-5 ovarian) was 38.2 µM, the TGI (OVCAR-5 ovarian) was greater than 100 µM and the GI50 (OVCAR-8 ovarian) was greater than 100 µM. For the same compound, the TGI (OVCAR-8 ovarian) was greater than 100 µM, the GI50 (RPMI-8226 leukemia) was 27.1 µM and the TGI (RPMI-8226 leukemia) was 71.3 µM. For the same compound, the GI50 (SF-268 CNS) was greater than 100 µM, the TGI (SF-268 CNS) was greater than 100 µM and the GI50 (SF-295 CNS) was 10.6 µM. For the same compound, the TGI (SF-295 CNS) was 71.9 µM, the GI50 (SF-539 CNS) was 71.2 µM and the TGI (SF-539 CNS) was greater than 100 µM. For the same compound, the GI50 (SK-MEL-2 melanoma) was greater than 100 µM, the TGI (SK-MEL-2 melanoma) was greater than 100 µM and the GI50 (SK-MEL-28 melanoma) was 43.8 µM. For the same compound, the TGI (SK-MEL-28 melanoma) was greater than 100 µM, the GI50 (SK-MEL-5 melanoma) was greater than 100 µM and the TGI (SK-MEL-5 melanoma) was greater than 100 µM. It also gave a GI50 (SK-OV-3 ovarian) greater than 100 µM, a TGI (SK-OV-3 ovarian) greater than 100 µM and a GI50 (SN12C renal) of 36.8 µM. For the same compound, the TGI (SN12C renal) was greater than 100 µM, the GI50 (SNB-19 CNS) was greater than 100 µM and the TGI (SNB-19 CNS) was greater than 100 µM. It also gave a GI50 (SNB-75 CNS) of 73.1 µM, a TGI (SNB-75 CNS) greater than 100 µM and a GI50 (SW-620 colon) of 49.9 µM. The TGI (SW-620 colon) was greater than 100 µM, the GI50 (U251 CNS) was greater than 100 µM and the TGI (U251 CNS) was greater than 100 µM. The GI50 (UACC-257 melanoma) was greater than 100 µM, the TGI (UACC-257 melanoma) was greater than 100 µM and the GI50 (UACC-62 melanoma) was 18 µM. The TGI (UACC-62 melanoma) was greater than 100 µM, the GI50 (UO-31 renal) was greater than 100 µM and the TGI (UO-31 renal) was greater than 100 µM.
